Experimental data from US20260317332A1, “BICYCLIC HETEROCYCLE COMPOUNDS FOR THE TREATMENT OF CANCER” (Hoffmann-La Roche Inc., priority 2023, published 2026).

Columns and labels:
[1] = target: T1, CD73 (Homo sapiens, UniProt P21589); test: CD73 Cellular Assay; format: cell-based; parameters: 40 μL of MDA-MB-231 cells (ATCC, HTB-26, breast cancer); host or cells: MDA-MB-231; details: MDA-MB-231 cells; 200 μM AMP working solution; 45 min at 37° C.; malachite readout; read-out: Cellular IC50 against CD73
T1 sequence (P21589 27-574): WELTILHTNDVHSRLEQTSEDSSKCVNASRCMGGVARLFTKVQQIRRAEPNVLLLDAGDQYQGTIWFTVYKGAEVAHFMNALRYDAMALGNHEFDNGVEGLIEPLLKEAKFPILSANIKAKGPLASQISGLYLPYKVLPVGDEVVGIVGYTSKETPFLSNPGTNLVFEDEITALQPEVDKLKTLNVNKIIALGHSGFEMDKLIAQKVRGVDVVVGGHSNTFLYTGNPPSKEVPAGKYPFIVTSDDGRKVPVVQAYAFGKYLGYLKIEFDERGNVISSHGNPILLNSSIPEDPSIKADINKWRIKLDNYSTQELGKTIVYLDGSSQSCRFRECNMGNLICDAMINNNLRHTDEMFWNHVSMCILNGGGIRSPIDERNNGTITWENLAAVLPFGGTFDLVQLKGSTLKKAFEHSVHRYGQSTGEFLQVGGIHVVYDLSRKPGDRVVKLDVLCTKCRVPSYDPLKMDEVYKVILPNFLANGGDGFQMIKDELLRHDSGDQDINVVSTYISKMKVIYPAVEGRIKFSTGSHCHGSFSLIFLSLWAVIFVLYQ
Protocol: Compound serial dilution (1:3) was prepared with Echo 555 liquid handler (Labcyte) into the corresponding wells of a 384-well plate. 40 μL of MDA-MB-231 cells (ATCC, HTB-26, breast cancer, final concentration at 20,000 cells/mL) suspended in assay buffer (20 mM HEPES pH 7.4, 137 mM NaCl, 5.4 mM KCl, 1.3 mM CaCl2, 4.2 mM NaHCO3, 1 mg/mL glucose) were added into the corresponding wells of the plate. After incubating with compounds for 30 minutes, 40 μL of AMP working solution (200 μM AMP in assay buffer) was added into each well in the assay plate. The assay plate was then incubated in a 5% CO2 incubator (Thermo Fisher Scientific) at 37° C. for 45 min. After the reaction was completed, 50 μL of the supernatants was collected and transferred into a new 384 well plate. 10 μL of Malachite A was added to each well in the assay plate and incubated for 10 minutes. 10 μL of Malachite B was then added to each corresponding well of the plate and incubated for 30 minutes. Finally the absorbance value was read on the Envision plate reader at […]. Calculation percentage inhibition by using equation {% inhibition=100×[1−(X−MIN)/(MAX−MIN)]} where X equals to the well signal, Max equals signal of neutral control and MIN equals signal of inhibitor control.

[2] = target: T1, CD73; test: Human CD73 Biochemical Assay; details: 0.05 nM recombinant CD73; AMP 5.56 μM final; 10 min at room temperature; LC/MS adenosine readout; read-out: Enzymatic IC50 against human CD73
Protocol: The purpose of this assay is to identify and characterize inhibitors of human CD73 enzymatic activity. Compound serial dilution (1:3) was prepared with Echo 555 liquid handler (Labcyte) into the corresponding wells of a 384-well plate. 10 μL of enzyme working solution (containing 0.05 nM recombinant CD73 protein, 10 mM Tris pH 7.5, 100 mM NaCl, 0.01% BSA, 0.2 mM Octyl glucoside and 1 mM NaH2PO4) was added to the assay plate and incubated with compounds for 15 minutes at room temperature. After adding 15 μL of AMP working solution (Containing 10 mM Tris pH 7.5, 100 mM NaCl, 0.01% BSA, 0.2 mM Octyl glucoside, with 5.56 μM of AMP final concentration) and incubate for 10 min at room temperature. Stop the reaction by adding 75 μL of stop solution (5% TCA in H2O containing 250 nM 13C5-adenosine) to each well for 10 min incubation. After centrifugation, 75 μL of the mixture was transferred to a new 384-well plate for LC/MS analysis.
Samples from the 384-well plates, were loaded onto an autosampler deck, then injected with ADDA-LC-MS/MS. The aqueous mobile phase is 0.1% formic acid in water. The organic mobile phase is 0.1% formic acid in acetonitrile. Flow rate is maintained at 0.8 mL/minute using Shimadzu pumps. The column is ACE 5 Phenyl, 50×2.1 mm. The analysis was performed on a SCIEX triple quadrupole mass spectrometer operating in positive ion mode. The effluent from the HPLC column was directly introduced into the electrospray ionization (ESI). Multiple reaction monitoring (MRM) is used to determine analyte and internal standard (IS) responses. The MRM for adenosine is 268.1/136.1, for 13C5-Adenosine (IS) is 273.2/136.2. The data is calculated using the peak area ratio (PAR) semi-quantitative method.

[3] = system: CD4+ T cells; test: T Cell Proliferation Assay: CD4+ T cell proliferation; format: cell-based; details: Homo sapiens, high AMP condition (200 μM AMP, 5 μM EHNA), CD3/CD28 beads, 72 hours, read-out: CD4+ T cell proliferation EC50 (rescue of proliferation)
Protocol: (§1) The purpose of this assay is to characterize the potency of inhibitors of CD73 in rescuing adenosine-mediated inhibition of T cell proliferation. CD4+ or CD8+ T cells were isolated from peripheral blood mononuclear cells (PBMCs, HemaCare) by immunomagnetic negative selection using EasySep™ Isolation Kit (STEMCELL Technologies) following the supplier's protocol. Pan T cells were pelleted by centrifugation at 300 gravitational force (g) for 5 minutes at room temperature and re-suspended in PBS. CellTrace™ Violet staining solution (Invitrogen) was added at 1:5,000 and incubated at 37° C. for 20 minutes, protected from light. Complete culture medium [RPMI-1640 (Gibco), 10% Fetal Bovine Serum (Gibco), 2 mM GlutaMAX (Gibco) and 1 mM Sodium Pyruvate (Gibco), 100 U/mL Penicillin-Streptomycin (Gibco) and MEM non-essential amino acids (NEAA) cell culture supplement (1:100, Gibco)] was then added, mixed, and incubated at 37° C. for 5 minutes. Cells were then pelleted by centrifugation at 300 g for 5 minutes at room temperature and re-suspended in fresh, pre-warmed complete culture medium. 50 μL of cells were seeded per well in 96 well u-bottom plates. 50 μL of CD3/CD28 beads-containing medium and 50 μL of media containing compounds were added into cells. 50 μL of media containing AMP and EHNA hydrochloride (Sigma-Aldrich) was added into cells at 200 μM and 5 μM final concentration, respectively. Cells were incubated for 72 hours at 37° C. in a 5% CO2 incubator. 200 μL of PBS was then added to each well and cells were centrifuged at 300 g, 4° C. for 10 minutes. The supernatant was discarded. 50 μL of Human TruStain FcX™ (Fc Receptor Blocking Solution, BioLegend) diluted 1:100 in PBS was added to each well, mixed gently and incubated for 20 minutes at 4° C. 50 μL of staining solution (BioLegend) was added to each well, mixed gently and incubated at 4° C. for 30 minutes. Cells were centrifuged at 300 g, 4° C. for 10 minutes and the supernatant was discarded. The cell pellets were washed with 250 μL of cell staining buffer and centrifuged at 300 g, 4° C. for 10 minutes. The supernatant was discarded and cells were re-suspended in 60 μL of cell staining buffer and analyzed on a flow cytometer.

[4] = system: CD8+ T cells; test: T Cell Proliferation Assay: CD8+ T cell proliferation; format: cell-based; details: high AMP condition (200 μM AMP, 5 μM EHNA), CD3/CD28 beads, 72 hours, read-out: CD8+ T cell proliferation EC50 (rescue of proliferation)
Protocol: as §1

SMILES	IC50 [1]	IC50 [2]	EC50 [3]	EC50 [4]
COCCOc1cc([C@@H](Oc2nn(C)c3nnc(-c4c[nH]c(=O)[nH]c4=O)cc23)C(F)F)ccn1 [Example 28, 5-[3-[(1R)-2,2-difluoro-1-[2-(2-methoxyethoxy)-4-pyridyl]ethoxy]-1-methyl-pyrazolo[3,4-c]pyridazin-5-yl]-1H-pyrimidine-2,4-dione]	630 pM	50 pM	330 pM	560 pM
Cn1nc(O[C@H](c2cc(OC3CC(F)(F)C3)ncn2)C(F)F)c2cc(-c3c[nH]c(=O)[nH]c3=O)nnc21 [Example 42A, 5-[3-[(1R)-1-[6-(3,3-difluorocyclobutoxy)pyrimidin-4-yl]-2,2-difluoro-ethoxy]-1-methyl-pyrazolo[3,4-c]pyridazin-5-yl]-1H-pyrimidine-2,4-dione]	760 pM	60 pM	220 pM	180 pM
Cn1nc(O[C@H](c2cc(OCC(F)(F)F)ncn2)C(F)F)c2cc(-c3c[nH]c(=O)[nH]c3=O)nnc21 (single isomer, unassigned) [Example 35A]	590 pM	60 pM	300 pM	320 pM
Cn1nc(O[C@H](c2ccnc(OCC(F)(F)F)c2)C(F)F)c2cc(-c3c[nH]c(=O)[nH]c3=O)nnc21 [Example 10, 5-[3-[(1R)-2,2-difluoro-1-[2-(2,2,2-trifluoroethoxy)-4-pyridyl]ethoxy]-1-methyl-pyrazolo[3,4-c]pyridazin-5-yl]-1H-pyrimidine-2,4-dione]	550 pM	60 pM	140 pM	80 pM
Cn1nc(O[C@H](c2ccnc(COCC(F)(F)F)c2)C(F)F)c2cc(-c3c[nH]c(=O)[nH]c3=O)nnc21 [Example 34, 5-[3-[(1R)-2,2-difluoro-1-[2-(2,2,2-trifluoroethoxymethyl)-4-pyridyl]ethoxy]-1-methyl-pyrazolo[3,4-c]pyridazin-5-yl]-1H-pyrimidine-2,4-dione]	420 pM	70 pM	100 pM	110 pM
C[C@H](Nc1cc([C@@H](Oc2nn(C)c3nnc(-c4c[nH]c(=O)[nH]c4=O)cc23)C(F)F)ccn1)C(F)(F)F [Example 26, 5-[3-[(1R)-2,2-difluoro-1-[2-[[(1S)-2,2,2-trifluoro-1-methyl-ethyl]amino]-4-pyridyl]ethoxy]-1-methyl-pyrazolo[3,4-c]pyridazin-5-yl]-1H-pyrimidine-2,4-dione]	270 pM	40 pM	80 pM	90 pM
Cn1nc(O[C@H](c2cc(OCC(F)(F)F)ccn2)C(F)F)c2cc(-c3c[nH]c(=O)[nH]c3=O)nnc21 [Example 4, 5-[3-[(1R)-2,2-difluoro-1-[4-(2,2,2-trifluoroethoxy)-2-pyridyl]ethoxy]-1-methyl-pyrazolo[3,4-c]pyridazin-5-yl]-1H-pyrimidine-2,4-dione]	490 pM	70 pM	180 pM	220 pM
Cn1nc(O[C@H](c2ccnc(COC3CC3)c2)C(F)F)c2cc(-c3c[nH]c(=O)[nH]c3=O)nnc21 [Example 2, 5-[3-[(1R)-1-[2-(cyclopropoxymethyl)-4-pyridyl]-2,2-difluoro-ethoxy]-1-methyl-pyrazolo[3,4-c]pyridazin-5-yl]-1H-pyrimidine-2,4-dione]	210 pM	70 pM	180 pM	170 pM
Cn1nc(O[C@H](c2ccnc(C3CC(F)(F)C3)c2)C(F)F)c2cc(-c3c[nH]c(=O)[nH]c3=O)nnc21 [Example 38, 5-[3-[(1R)-1-[2-(3,3-difluorocyclobutyl)-4-pyridyl]-2,2-difluoro-ethoxy]-1-methyl-pyrazolo[3,4-c]pyridazin-5-yl]-1H-pyrimidine-2,4-dione]	360 pM	60 pM	60 pM	70 pM
Cn1nc(O[C@H](c2ccnc(OCC(F)(F)F)c2)C(F)F)c2cc(-c3n[nH]c(=O)[nH]c3=O)nnc21 [Example 12, 6-[3-[(1R)-2,2-difluoro-1-[2-(2,2,2-trifluoroethoxy)-4-pyridyl]ethoxy]-1-methyl-pyrazolo[3,4-c]pyridazin-5-yl]-2H-1,2,4-triazine-3,5-dione]	670 pM	20 pM	150 pM	120 pM
Cn1nc(O[C@H](c2ccc3cnn(CC(F)(F)F)c3c2)C(F)F)c2cc(-c3c[nH]c(=O)[nH]c3=O)nnc21 [Example 24, 5-[3-[(1R)-2,2-difluoro-1-[1-(2,2,2-trifluoroethyl)indazol-6-yl]ethoxy]-1-methyl-pyrazolo[3,4-c]pyridazin-5-yl]-1H-pyrimidine-2,4-dione]	440 pM	50 pM	190 pM	230 pM
